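Grown in 96-well plates, cells were treated for 48 hours with each compound at five concentrations. Insufficient inhibition: endpoint recorded as highest concentration tested. The concentration for 50% growth inhibition is given as GI50.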 The source made the active and inactive calls. Rule as the data show it: active = GI50 up to about 1.1 µM and inactive = higher.
Key:
Test in all cases: DTP human tumour cell line panel, 48 h
SF-295 = test system: SF-295
A549 = test system: A549
UACC-257 = test system: UACC-257
CAKI-1 = test system: CAKI-1
SK-MEL-2 = test system: SK-MEL-2
LOX IMVI = test system: LOX IMVI
RXF 393 = test system: RXF 393
SK-MEL-5 = test system: SK-MEL-5
MDA-MB-231 = test system: MDA-MB-231
A498 = test system: A498
M14 = test system: M14
RPMI-8226 = test system: RPMI-8226
U-251 = test system: U-251
SR = test system: SR
T47D = test system: T47D
ACHN = test system: ACHN
PC-3 = test system: PC-3
K562 = test system: K562
HCT-15 = test system: HCT-15
SNB-19 = test system: SNB-19

Structure (SMILES) | GI50 (SF-295) | GI50 (A549) | GI50 (UACC-257) | GI50 (CAKI-1) | GI50 (SK-MEL-2) | GI50 (LOX IMVI) | GI50 (RXF 393) | GI50 (SK-MEL-5) | GI50 (MDA-MB-231) | GI50 (A498) | GI50 (M14) | GI50 (RPMI-8226) | GI50 (U-251) | GI50 (SR) | GI50 (T47D) | GI50 (ACHN) | GI50 (PC-3) | GI50 (K562) | GI50 (HCT-15) [µM] | GI50 (SNB-19)
c1ccc2c(c1)Nc1ccccc1[P+]21c2ccccc2Nc2ccccc21 | 1.3 µM (inactive) | 0.182 µM (active) | 0.214 µM (active) | 1.61 µM (inactive) | 0.199 µM (active) | 0.587 µM (active) | 0.303 µM (active) | 0.165 µM (active) | 0.212 µM (active) | 0.318 µM (active) | 0.351 µM (active) | 0.0314 µM (active) | 0.23 µM (active) | 0.238 µM (active) | 0.11 µM (active) | 1.86 µM (inactive) | 0.169 µM (active) | 0.212 µM (active) | 5.73 | 0.299 µM (active)
COc1ccc(C2CC(c3c(C)nn(-c4ccccc4)c3-c3ccc(C)cc3O)=NN2c2ccccc2)cc1 (stereo not given) | 6.93 µM (inactive) | 4.35 µM (inactive) | 67.3 µM (inactive) | 38.9 µM (inactive) | 14.1 µM (inactive) | > 30.1 µM (inactive) | 8.13 µM (inactive) | 18.5 µM (inactive) | > 46.5 µM (inactive) | > 100 µM (inactive) | 14.2 µM (inactive) | 4.81 µM (inactive) | 33.3 µM (inactive) | 13.3 µM (inactive) | 9.57 µM (inactive) | 13.9 µM (inactive) | 3.78 µM (inactive) | 7.13 µM (inactive) | 7.71 | > 29 µM (inactive)
CCOC(=O)c1cc2c(C(=O)c3ccc([N+](=O)[O-])cc3)c(C(C)=O)ccc2[nH]1 | 23.6 µM (inactive) | 39.4 µM (inactive) | > 100 µM (inactive) | 18.3 µM (inactive) | 55.8 µM (inactive) | 99.8 µM (inactive) | 15.2 µM (inactive) | 16.6 µM (inactive) | 16.9 µM (inactive) | 50.5 µM (inactive) | > 100 µM (inactive) | > 100 µM (inactive) | 9.51 µM (inactive) | > 100 µM (inactive) | 29.9 µM (inactive) | 28.7 µM (inactive) | > 100 µM (inactive) | 26.7 µM (inactive) | 50 | 22.1 µM (inactive)
Nc1ccc(Oc2ccc(C34CC5CC6C3CC3CC4C(C5)C6(c4ccc(Oc5ccc(N)c(O)c5)cc4)C3)cc2)cc1O | 3.58 µM (inactive) | 1.9 µM (inactive) | 3.64 µM (inactive) | 4.5 µM (inactive) | 19.5 µM (inactive) | 2.87 µM (inactive) | 4.13 µM (inactive) | 2.96 µM (inactive) | 3.75 µM (inactive) | 7.36 µM (inactive) | 2.27 µM (inactive) | 1.93 µM (inactive) | 2.58 µM (inactive) | 1.62 µM (inactive) | 0.652 µM (active) | 2.44 µM (inactive) | 1.66 µM (inactive) | 2.79 µM (inactive) | 3.44 | 3.57 µM (inactive)
CCn1c(-c2ccc(OC(C)=O)cc2)c(C)c2cc(OC(C)=O)ccc21 [ZINDOXIFENE] | 24 µM (inactive) | 15.4 µM (inactive) | 27 µM (inactive) | 24.3 µM (inactive) | 18.5 µM (inactive) | 11.9 µM (inactive) | 6.82 µM (inactive) | 13.8 µM (inactive) | 14.6 µM (inactive) | 23.6 µM (inactive) | 18.1 µM (inactive) | 12.5 µM (inactive) | 11.3 µM (inactive) | 5.27 µM (inactive) | 19.4 µM (inactive) | 19.4 µM (inactive) | 13.7 µM (inactive) | 11.8 µM (inactive) | 3.79 | 31 µM (inactive)
Oc1c(Cl)cc(CN(Cc2cc(Cl)c(O)c(Cl)c2)C2CCCCC2)cc1Cl | > 100 µM (inactive) | > 100 µM (inactive) | > 100 µM (inactive) | > 100 µM (inactive) | > 100 µM (inactive) | > 100 µM (inactive) | > 100 µM (inactive) | > 100 µM (inactive) | > 100 µM (inactive) | > 100 µM (inactive) | > 100 µM (inactive) | > 100 µM (inactive) | > 100 µM (inactive) | > 100 µM (inactive) | > 100 µM (inactive) | > 100 µM (inactive) | > 100 µM (inactive) | > 100 µM (inactive) | > 100 | > 100 µM (inactive)
O=c1c2c3c(sc2nc2n1N=CN(c1ccc(F)cc1)C2)CCCC3 | > 100 µM (inactive) | > 100 µM (inactive) | > 100 µM (inactive) | > 100 µM (inactive) | > 100 µM (inactive) | > 100 µM (inactive) | > 100 µM (inactive) | > 100 µM (inactive) | > 100 µM (inactive) | > 100 µM (inactive) | > 100 µM (inactive) | > 100 µM (inactive) | > 100 µM (inactive) | > 100 µM (inactive) | > 100 µM (inactive) | > 100 µM (inactive) | > 100 µM (inactive) | > 100 µM (inactive) | > 100 | > 100 µM (inactive)
CC(C)=C[C@H]1C[C@H](C)[C@H]2CC[C@H](C)c3c2c1c(C)c1ncoc31 | 17 µM (inactive) | 14.9 µM (inactive) | 18.4 µM (inactive) | 18.7 µM (inactive) | 14.9 µM (inactive) | 20.1 µM (inactive) | 11.9 µM (inactive) | 13.9 µM (inactive) | 20.4 µM (inactive) | 19.9 µM (inactive) | 15 µM (inactive) | 12.2 µM (inactive) | 16.8 µM (inactive) | 14.1 µM (inactive) | 17.8 µM (inactive) | 18.1 µM (inactive) | 17 µM (inactive) | 21.4 µM (inactive) | 19.1 | 14.6 µM (inactive)
O=[N+]([O-])c1ccc(Cl)cc1C1ON=C(c2ccccc2)N1C12CC3CC(CC(C3)C1)C2 (stereo not given) | > 100 µM (inactive) | > 100 µM (inactive) | > 100 µM (inactive) | > 100 µM (inactive) | > 100 µM (inactive) | 57.5 µM (inactive) | > 100 µM (inactive) | > 100 µM (inactive) | > 100 µM (inactive) | > 100 µM (inactive) | > 100 µM (inactive) | > 100 µM (inactive) | > 100 µM (inactive) | > 100 µM (inactive) | > 100 µM (inactive) | > 100 µM (inactive) | > 100 µM (inactive) | > 100 µM (inactive) | > 100 | > 100 µM (inactive)
C1CCN(CCC2CCCCN2)CC1 (stereo not given) | > 100 µM (inactive) | > 100 µM (inactive) | > 100 µM (inactive) | > 100 µM (inactive) | > 100 µM (inactive) | > 100 µM (inactive) | > 100 µM (inactive) | > 100 µM (inactive) | > 100 µM (inactive) | > 100 µM (inactive) | > 100 µM (inactive) | > 100 µM (inactive) | > 100 µM (inactive) | > 100 µM (inactive) | > 100 µM (inactive) | > 100 µM (inactive) | > 100 µM (inactive) | > 100 µM (inactive) | > 100 | > 100 µM (inactive)
C=C1C(=O)O[C@@H]2/C=C(/C)[C@@H](OC(C)=O)C/C=C(\C)C(O)[C@@H](OC(=O)/C(C)=C\C)C12 (stereo not given in full) | > 100 µM (inactive) | 95.7 µM (inactive) | 37.2 µM (inactive) | 24.2 µM (inactive) | 27.6 µM (inactive) | 14.6 µM (inactive) | 26.8 µM (inactive) | 15.8 µM (inactive) | 19.1 µM (inactive) | 51.3 µM (inactive) | 33.1 µM (inactive) | 21.6 µM (inactive) | 41.1 µM (inactive) | 17.3 µM (inactive) | 19.6 µM (inactive) | 18.7 µM (inactive) | 76.2 µM (inactive) | 22.6 µM (inactive) | 16.5 | > 100 µM (inactive)
Nc1nc(NCc2ccccc2)cc(NCc2ccccc2)n1 | 4.91 µM (inactive) | 9.48 µM (inactive) | 5.69 µM (inactive) | 2.64 µM (inactive) | 8.81 µM (inactive) | 4.23 µM (inactive) | 6.31 µM (inactive) | 3.71 µM (inactive) | 3.49 µM (inactive) | 0.668 µM (active) | 10.5 µM (inactive) | 3.06 µM (inactive) | 5.14 µM (inactive) | 2.72 µM (inactive) | 4.48 µM (inactive) | 7.26 µM (inactive) | 3.64 µM (inactive) | 5.75 µM (inactive) | 3.52 | 8.39 µM (inactive)
CC1=CC(=O)c2cccc(O)c2C1=O | 14.3 µM (inactive) | 14.9 µM (inactive) | 1.79 µM (inactive) | 1.88 µM (inactive) | 2.09 µM (inactive) | 2.52 µM (inactive) | 1.88 µM (inactive) | 1.79 µM (inactive) | 1.76 µM (inactive) | 18.5 µM (inactive) | 1.81 µM (inactive) | 3.53 µM (inactive) | 16.5 µM (inactive) | 1.8 µM (inactive) | 1.77 µM (inactive) | 1.78 µM (inactive) | 2.1 µM (inactive) | 3.02 µM (inactive) | 1.56 | 8.07 µM (inactive)
CC(=O)OC1CCC2(C)C(=CC(C3C=C4CC(OC(C)=O)CCC4(C)C4=C3C3CC5OC6(CCC(C)CO6)C(C)C5C3(C)CC4)C3=C2CCC2(C)C3CC3OC4(CCC(C)CO4)C(C)C32)C1 (stereo not given) | 13.2 µM (inactive) | 13.7 µM (inactive) | 10.2 µM (inactive) | 18.2 µM (inactive) | 16.5 µM (inactive) | 16.5 µM (inactive) | 16.1 µM (inactive) | 13 µM (inactive) | 16.3 µM (inactive) | 17.1 µM (inactive) | 14 µM (inactive) | 4.98 µM (inactive) | 14.7 µM (inactive) | 11.9 µM (inactive) | 15.5 µM (inactive) | 15.8 µM (inactive) | 12.9 µM (inactive) | 4.43 µM (inactive) | 14.3 | 16.7 µM (inactive)
